How the values were obtained:
[1] = in vitro drug release study, aqueous medium containing 1% Tween 80; type: physicochemical; details: 24-hour period, FIG. 3
Text: In the drug release study, an aqueous medium containing 1% Tween 80 is used to re-suspend the genistein-containing PLGA particles or the raw genistein. The cumulative release percentage of the encapsulated genistein from the PLGA coated particles and that of the raw genistein without PLGA for a 24-hour period is shown in FIG. 3. […] That may be due to the presence of free and weakly bound drug on the surface of particulate carriers. […] In FIG. 3, the encapsulated genistein from the PLGA coated particles has a cumulative release percentage of below 20% within the first 24 hours while the raw genistein has over 40% of release over the 24-hour period. From this in vitro study, it could be said that the extended release profile of genistein-containing PLGA particles can increase the chance of genistein to be utilized in human body, which further leads to an improved bioavailability. The slower the release rate is, more available active ingredients are released to a specific site of action.

[2] = particle morphology and size under scanning electron microscope (SEM); type: physicochemical
Text: It appears from the SEM images that the particle of genistein with PLGA has a nearly spherical shape and an average size of less than 1 μm. In comparison, the raw genistein is rectangular rod-shaped and the width (i.e., the shortest side of the rectangular rod-shaped raw genistein) is about 10 μm. PLGA matrix can protect genistein from degradation in the gastrointestinal tract and also from first-pass metabolism in the liver. Meanwhile, the nearly spherical shape of the genistein particle with the size less than 1 μm has a larger surface area to favor the interaction between the particle and the target cell in order to increase the chance of localizing on the target cell and delivering the genistein encapsulated in the particle in a controlled release manner.

cumulative release percentage of genistein [1]: over 40%
width (shortest side of rectangular rod-shaped particle) [2]: about 10 μm
Structure (SMILES): O=c1c(-c2ccc(O)cc2)coc2cc(O)cc(O)c12 [raw genistein, genistein]

Reference: patent US20130189320A1, “METHOD OF PREPARING A CONTROLLED RELEASE PARTICLE OF SOY ISOFLAVONE WITH BIODEGRADABLE POLYMER USING A SUPERCRITICAL FLUID EXTRACTION OF EMULSION (SFEE) PROCESS” (Nano and Advanced Materials Institute Limited, priority 2012, published 2013)
